Tests used:
21-VS cells (HA-Venus) = assay: Control fluorescence of 21-VS stable cells expressing intact Venus; assay type: cell-based; conditions: higher concentration, where BiFC reduction has reached its plateau
Protocol: The HA-Supt4h-YC and FLAG-NGN-YN fragments were amplified by PCR using plasmid constructs described above and sub-cloned individually into the pTRE-tight-BI vector (Clontech Laboratories), which contain a bi-directional CMV promoter under the control of tetracycline. The coding sequence of yellow fluorescence protein Venus with a HA-epitope in its N-terminus was PCR-amplified and cloned into the vector to generate pTRE-HA-Venus.
Tet-on HeLa cells were transfected with linearized pTRE-HA-Supt4h-VC-Flag-NGN-VN plasmid construct using LipofectAMINE 2000 (Invitrogen). After transfection, cells were cultured initially in growth medium containing puromycin (1 μg/ml) and then selected for clones that show YFP fluorescence in the presence of tetracycline (4 μg/ml). The stable line having the strongest fluorescence signal was isolated and designated as 2-PN4. […]
Stable lines 2-PN4 and 21-VS were pre-cultured in 6-well plates, followed by an incubation of Doxycycline (4 μg/ml) together with various concentrations of chemical compounds for 24 hr. Cells were washed with PBS (Sigma) and monitored by microscope (20× magnification). Photos were taken using Nikon D500 camera with a setting of ISO 1600, shutter 1/200 for the light images, and shutter ½ for the fluorescence images. […] The average of overall fluorescence signal was determined and compared to the one observed in DMSO-treated control sample. […]

[1] = tested on: Supt4h-YC and NGN-YN protein expression; assay: Western blot of Supt4h-YC and NGN-YN protein levels in 2-PN4 cells; assay type: cell-based, human
Protocol: As described (Liu et al., “Spt4 is selectively required for transcription of extended trinucleotide repeats,” Cell (2012) 148:690-701), equal amounts of protein were resolved by electrophoresis on 12% sodium dodecyl sulfate (SDS)-polyacrylamide gels, and transferred onto nitrocellulose membranes (nitrocellulose, Waterman 0.45 μM, NBA085C). After blocking with 5% low-fat milk in Tris-buffer saline containing 0.1% Tween-20, membranes were probed with primary antibodies, incubated with a horseradish peroxidase (HRP)-conjugated secondary antibody, and detected by ECL reagent (enhanced chemiluminescence, PerkinElmer).

Q20-GFP = assay: PolyQ-tagged GFP reporter in HEK293 cells, Q20-GFP; assay type: cell-based; conditions: higher concentration, 48 hours after transfection
Excerpt: CAG repeats and part of the flanking region in the first exon of Htt gene were PCR amplified from cDNA of HD patient lymphoblastoid cells containing one normal and one mutant allele (Q22 and Q44) with additional flanking restriction enzyme sites NheI. The PCR fragments were than in-frame fused with pEGFP-C1 at the end of the EGFP gene to express polyQ tagged GFP.
Normal length of poly Q (Q20) and pathogenic length of poly Q(Q44) were in-frame fused at the amino-terminus of eGFPC1 protein to generate Q44- and Q20-GFP (FIG. 8A). The plasmid carrying the polyQ tagged GFP was transfected into HEK 293 cells with greater than 90% transfection efficiency.
(§1) HEK293 cells were transiently transfected with the above mentioned GFP constructs. Five hours after transfection, cells were split among the wells of a 24-well plate and various concentrations of HD101 were added into the wells. 48 hours after transfection, cells were washed with PBS, fixed with 4% paraformaldehyde, and then nuclear stained with DAPI. The cell images were taken by fluorescent microscope (FIG. 9A) and the GFP and DAPI intensity of each field were quantitated using software Image Pro 6.2.

eGFPC1 = assay: GFP reporter in HEK293 cells, eGFPC1 without polyQ; assay type: cell-based; conditions: higher concentration, 48 hours after transfection
Protocol: as §1

mutant Htt gene = assay: RT-PCR of Htt mRNA in Hdh Q111/Q111 striatal cells; assay type: cell-based, mouse; conditions: compared to mock control
Protocol: Tet-on HeLa cells (Clontech Laboratories), and stable line 2-PN4 and 21-VS were cultured in DMEM (Gibco) supplemented with 10% Tet-off fetal bovine serum (Gibco) at 37° C. with 5% CO2. Hdh Q7/Q7 (mouse), Hdh Q111/Q111 (mouse) were cultured in DMEM (HyClone) supplemented with 10% fetal bovine serum at 33° C. with 5% C02.
Total RNA was extracted from murine neuronal cells using TRI Reagent (Sigma). For cDNA conversion, 2 μg of total RNA was mixed with 5 μM random primer, 5 μM SnRNA U6 rt-PCR primer and 500 μM dNTPs, incubated at 65° C. for 5 min and then chilled on ice. After addition of First-Strand Buffer, DTT (Cf=10 mM) and 1 μl reverse transcriptase (Invitrogen), the reaction was carried out at 42° C. for 1 hr. Equal volumes of cDNA products were PCR amplified and resolved on 2.5% agarose gels to determine the abundance of Htt transcripts after normalization with U6 or 18S ribosomal RNA.

O=c1cnn([C@@H]2O[C@H](CO)[C@@H](O)[C@H]2O)c(=O)[nH]1 [HD101, 6-Azauridine]
fluorescence of 21-VS cells (21-VS cells (HA-Venus)): markedly affected | protein expression of Supt4h-YC and NGN-YN [1]: does not decrease the BiFC signal via a change in the protein level | Q20-GFP expression (GFP intensity normalized with DAPI) (Q20-GFP): down regulating both Q20 and Q44-GFP significantly | eGFPC1 expression (GFP intensity normalized with DAPI) (eGFPC1): minimum effect | Htt mRNA transcribed from mutant allele (mutant Htt gene): down-regulates the expression of mutant Htt gene
